Values after ≈ are worked out from the molar mass of the structure shown. Read-outs that look alike come from different tables or passages of the source.
Key:
[1] = tested on: pathogenic herpesvirus isolated from tortoises; design: method as in PMID 9323927; conditions: doses of 25 or 50 µg/mL, turtle heart cell cultures; cited from earlier work
AnPSV [2] = test: CPE reduction assay in DPHt cells; assay type: cell-based, Antaresian python serpentovirus; conditions: average ± SD; for EC50: read-out: EC50 (50% effective concentration, CPE reduction assay)
Description: (§1) Ribavirin was obtained from ICN Pharmaceuticals, Inc. (now Bausch Health, Laval, QC, Canada). Favipiravir was purchased from AdooQ Bioscience (Irvine, CA, USA). NITD-008 was supplied by BEI Resources (Manassas, VA, USA). Enviroximine was purchased from Cayman Chemical (Ann Arbor, MI, USA), and pirodavir was purchased from Med Chem Express (Monmouth Junction, NJ, USA). Infergen (Interferon-alfacon-1), a human consensus interferon, was provided by InterMune, Inc (Brisbane, CA, USA) as an aqueous solution. Solid compounds were dissolved in DMSO at a 20× concentration to yield a final DMSO concentration of <10%. Further dilutions were performed in culture media.
(§2) Diamond python heart cells (DPHt) were grown as described above. Cells were plated in 96-well microtiter plates and grown overnight prior to the addition of the virus and test compounds. A CPE assay was conducted to determine the activity of various antiviral against BPNV, GTSV, and AnPSN. Serial half-log dilutions of the test compounds were made and added to 5 wells of the 96-well plate. Culture media was added to two wells to determine the 50% cytotoxic concentration (CC50), and the virus was added to the other three wells to determine the 50% effective concentrations (EC50). Virus and cell controls were included with each plate. The selective index was determined by dividing the CC50 by the EC50/90 to determine the SI50/90. Two to three replicates of the assays were used to evaluate each compound.

BPNV [3] = test: CPE reduction assay in DPHt cells; assay type: cell-based, Ball python nidovirus; conditions: average ± SD; for EC50: Ball python nidovirus, read-out: EC50 (50% effective concentration, CPE reduction assay)
Description: as §1, §2

GTSV [4] = test: CPE reduction assay in DPHt cells; assay type: cell-based, Green tree python serpentovirus; conditions: average ± SD; for EC50: read-out: EC50 (50% effective concentration, CPE reduction assay)
Description: as §1, §2

[5] = Cytotoxicity in uninfected wells of the CPE assay; assay type: cell-based, Diamond python (Morelia spilota spilota); conditions: Diamond python (Morelia spilota spilota), CC50 (50% cytotoxic concentration)
Method: as §2, with “compound. A confirmatory virus yield reduction (VYR) assay was conducted where supernatant from the CPE assay was collected and titered on DPHt cells to determine the 90% effective concentration (EC90), or the concentration of compound required to reduce the virus titer by one Log10.” for “compound.”

[6] = tested on: Diamond python heart cells (DPHt); test: Cytotoxicity in uninfected wells of the CPE assay; assay type: cell-based, Diamond python (Morelia spilota spilota)
Method: as §2, with “compound. A confirmatory virus yield reduction (VYR) assay was conducted where supernatant from the CPE assay was collected and titered on DPHt cells to determine the 90% effective concentration (EC90), or the concentration of compound required to reduce the virus titer by one Log10.” for “compound.”

[7] = design: method as in PMID 19918064; conditions: dogs; development ceased; cited from earlier work
BPNV [8] = test: Virus yield reduction (VYR) assay, supernatant titered on DPHt cells; assay type: cell-based, Ball python nidovirus; conditions: for EC90: Ball python nidovirus, read-out: EC90 (90% effective concentration, virus yield reduction assay)
AnPNV, BPNV, and GTSV = test: CPE reduction assay, summary for all three serpentoviruses; assay type: cell-based, Ophidian serpentoviruses
Description: as §1
as §2, with “compound. A confirmatory virus yield reduction (VYR) assay was conducted where supernatant from the CPE assay was collected and titered on DPHt cells to determine the 90% effective concentration (EC90), or the concentration of compound required to reduce the virus titer by one Log10.” for “compound.”

Dengue virus = tested on: Dengue virus; design: method as in PMID 19918064; conditions: animal models; cited from earlier work
AnPSV [9] = test: Virus yield reduction (VYR) assay, supernatant titered on DPHt cells; assay type: cell-based, Antaresian python serpentovirus; conditions: for EC90: read-out: EC90 (90% effective concentration, virus yield reduction assay)
[10] = design: method as in PMID 19918064; conditions: rats; development ceased; cited from earlier work
GTSV [11] = test: Virus yield reduction (VYR) assay, supernatant titered on DPHt cells; assay type: cell-based, Green tree python serpentovirus; conditions: for EC90: read-out: EC90 (90% effective concentration, virus yield reduction assay)
[12] = design: method as in PMID 17168855; conditions: long-term treatment; cited from earlier work
[13] = Diamond python (Morelia spilota spilota)

Compound	EC50 (50% effective concentration, CPE reduction assay) (AnPSV [2]) [µg/mL]	EC50 (50% effective concentration, CPE reduction assay) (BPNV [3]) [µg/mL]	EC50 (50% effective concentration, CPE reduction assay) (GTSV [4]) [µg/mL]	EC50 (AnPSV [2]) [µg/mL]	CC50 [5] [µg/mL]	CC50 (50% cytotoxic concentration) [6, 13] [µg/mL]	EC50 (BPNV [3]) [µg/mL]	EC50 (GTSV [4]) [µg/mL]	antiviral activity (in words) (AnPNV, BPNV, and GTSV)	also measured
Nc1nc(O)c2ncn(COC(CO)CO)c2n1 [ganciclovir]										activity (in words) [1]: active
CC(C)S(=O)(=O)n1c(N)nc2ccc(/C(=N/O)c3ccccc3)cc21 [Enviroximine]	>0.24	>0.38	>4.9							
NC(=O)c1nc(F)c[nH]c1=O [Favipiravir]				> 320	> 320	>320	> 320	> 320		
C#C[C@@]1(O)[C@H](O)[C@@H](CO)O[C@H]1n1ccc2c(N)ncnc21 [NITD-008]	0.6 ± 0.3 (≈ 2.07 µM)	0.7 ± 0.4 (≈ 2.41 µM)	1.4 ± 0.8 (≈ 4.82 µM)						potent antiviral activity	toxicity (in words) [7]: toxicity was observed; CC50 (50% cytotoxic concentration) ([6]; DPHt cells, table line of AnPSV): 33 ± 9.0 µg/mL (≈ 114 µM); CC50 (50% cytotoxic concentration) ([6]; DPHt cells, table line of BPNV): 37 ± 26 µg/mL (≈ 127 µM); CC50 (50% cytotoxic concentration) ([6]; DPHt cells, table line of GTSV): 55 ± 42 µg/mL (≈ 189 µM); EC90 (90% effective concentration, virus yield reduction assay) (BPNV [8]): 1.5 µg/mL (≈ 5.17 µM); efficacy (in words) (Dengue virus): showed promise; EC90 (90% effective concentration, virus yield reduction assay) (AnPSV [9]): 0.76 µg/mL (≈ 2.62 µM); toxicity (in words) [10]: toxicity was observed; EC90 (90% effective concentration, virus yield reduction assay) (GTSV [11]): 4.8 µg/mL (≈ 16.5 µM)
Interferon-alfacon-1 [Infergen]	>0.01	>0.01	>0.01							CC50 (50% cytotoxic concentration) [6]: 0.01 µg/mL
CCC(CC)COC(=O)[C@H](C)N[P@](=O)(OC[C@H]1O[C@@](C#N)(c2ccc3c(N)ncnn23)[C@H](O)[C@@H]1O)Oc1ccccc1 [Remdesivir]				< 0.022	2.2 ± 1.6 (≈ 3.65 µM)	2.3 ± 1.8 (≈ 3.82 µM)	< 0.022	< 0.022	potent antiviral activity	EC90 (BPNV [8]): < 0.001 µg/mL; EC90 (AnPSV [9]): < 0.001 µg/mL; EC90 (GTSV [11]): < 0.001 µg/mL
NC(=O)c1ncn([C@@H]2O[C@H](CO)[C@@H](O)[C@H]2O)n1 [Ribavirin]				2 ± 0.3 (≈ 8.19 µM)	> 1000	>1000	0.9 ± 0.2 (≈ 3.69 µM)	7.9 ± 3 (≈ 32.3 µM)	potent antiviral activity	adverse effect (in words) [12]: associated with anemia; EC90 (BPNV [8]; BPNV, concentration reducing virus titer by one Log10): 1.6 µg/mL (≈ 6.55 µM); EC90 (AnPSV [9]; AnPSV, concentration reducing virus titer by one Log10): 12 µg/mL (≈ 49.1 µM); EC90 (GTSV [11]; GTSV, concentration reducing virus titer by one Log10): 14 µg/mL (≈ 57.3 µM)
Nc1nc2c(ncn2COCCO)c(=O)[nH]1 [Acyclovir]										activity (in words) [1]: active
CCOC(=O)c1ccc(OCCC2CCN(c3ccc(C)nn3)CC2)cc1 [Pirodavir, pirodavir]				1.1 (≈ 2.98 µM)	7.3 (≈ 19.8 µM)	>10	2.6 (≈ 7.04 µM)	0.86 (≈ 2.33 µM)		
